Values quoted from earlier work as cited in US11039992B2, “Stable redox compositions and methods of use” (Reoxcyn, LLC, priority 2017, dated 2021).

Details: pH-neutral aqueous solution (pH around 7.0) at room temperature

O=[O+][O-] [ozone]
half-life: about 20 minutes
